From ChEMBL document CHEMBL3390838, “Synthesis, anti-proliferative and proapoptotic activity of novel oleanolic acid azaheterocyclic derivatives” (Medchemcomm, 2012) come the findings set out here.

Data set [1] can be described thus: Cytotoxicity against human HL60 cells after 72 hrs by MTT assay. It is filed as functional, cell-based. The following applies: HL-60, 72 h. A general note: Formazan colour is commonly taken as a measure of viable cells.
Another data set has as its system K562. In words: Cytotoxicity against human K562 cells after 72 hrs by MTT assay. The following applies: K562, 72 h. It is filed as functional, cell-based.
Data set [2] in a line: Cytotoxicity against human Bel7404 cells after 72 hrs by MTT assay. It is filed as functional, cell-based. The conditions noted are these: BEL-7404, 72 h.
For a further data set, the system named is MDA-MB-231. The data set can be described thus: Cytotoxicity against human MDA-MB-231 cells after 72 hrs by MTT assay. It is filed as functional, cell-based. The conditions noted are these: MDA-MB-231, 72 h.
For data set [3], the system named is BEL-7404 tumor cell line. In words: Induction of apoptosis in human Bel7404 cells assessed as increase in Bax protein expression at 60 uM at 36 hrs by Western blot analysis relative to control. Format: functional.
Data set [4] relates to BEL-7404 tumor cell line. In words: Induction of apoptosis in human Bel7404 cells assessed as increase in Bax protein expression at 60 uM at 24 hrs by Western blot analysis relative to control. Format: functional.
The test system of data set [5] is BEL-7404 tumor cell line. The data set can be described thus: Induction of apoptosis in human Bel7404 cells assessed as increase in Bax protein expression at 60 uM at 12 hrs by Western blot analysis relative to control. Format: functional.
Data set [6] in a line: Cytotoxicity against human L02 cells at 20 to 160 uM after 72 hrs by MTT assay. Format: cell-based. The conditions noted are these: l02, 72 h.
In data set [7] the test system is BEL-7404 tumor cell line. The data set can be described thus: Induction of apoptosis in human Bel7404 cells assessed as nuclear condensation at 60 uM after 48 hrs using Hoechst staining by fluorescence microscopy. Format: functional, cell-based.
The test system of data set [8] is BEL-7404 tumor cell line. In words: Induction of apoptosis in human Bel7404 cells assessed as membrane blebbing at 60 uM after 48 hrs using Hoechst staining by fluorescence microscopy. Format: functional, cell-based.
The subject of data set [9] is BEL-7404 tumor cell line. In words: Induction of apoptosis in human Bel7404 cells assessed as nuclear shrinking at 60 uM after 48 hrs using Hoechst staining by fluorescence microscopy. Format: functional, cell-based.
In data set [10] the test system is BEL-7404 tumor cell line. The data set can be described thus: Induction of apoptosis in human Bel7404 cells assessed as apoptotic bodies at 60 uM after 48 hrs using Hoechst staining by fluorescence microscopy. It is filed as functional, cell-based.
The test system of data set [11] is BEL-7404 tumor cell line. The data set can be described thus: Induction of apoptosis in human Bel7404 cells assessed as reduction in Bcl2 protein expression at 60 uM at 12 hrs by Western blot analysis relative to control. It is filed as functional. (In general: Immunoblotting shows a protein as a band on a membrane.)
Data set [12] relates to BEL-7404 tumor cell line. The data set can be described thus: Induction of apoptosis in human Bel7404 cells assessed as reduction in Bcl2 protein expression at 60 uM at 24 hrs by Western blot analysis relative to control. It is filed as functional.
Data set [13] deals with BEL-7404 tumor cell line. The data set can be described thus: Induction of apoptosis in human Bel7404 cells assessed as reduction in Bcl2 protein expression at 60 uM at 36 hrs by Western blot analysis relative to control. It is filed as functional.
For data set [14], the system named is BEL-7404 tumor cell line. The data set can be described thus: Induction of apoptosis in human Bel7404 cells assessed as reduction in Bcl2 protein expression at 60 uM at 48 hrs by Western blot analysis relative to control. Format: functional.
The test system of data set [15] is BEL-7404 tumor cell line. In words: Induction of apoptosis in human Bel7404 cells assessed as increase in cytochrome c protein level at 60 uM at 12 hrs by Western blot analysis relative to control. It is filed as functional.
The subject of data set [16] is BEL-7404 tumor cell line. In words: Induction of apoptosis in human Bel7404 cells assessed as increase in cytochrome c protein level at 60 uM at 24 hrs by Western blot analysis relative to control. It is filed as functional.
For data set [17], the system named is BEL-7404 tumor cell line. The data set can be described thus: Induction of apoptosis in human Bel7404 cells assessed as increase in cytochrome c protein level at 60 uM at 36 hrs by Western blot analysis relative to control. Format: functional.
Data set [18] relates to BEL-7404 tumor cell line. In words: Induction of apoptosis in human Bel7404 cells assessed as increase in cytochrome c protein level at 60 uM at 48 hrs by Western blot analysis relative to control. It is filed as functional.
The subject of data set [19] is BEL-7404 tumor cell line. In words: Induction of apoptosis in human Bel7404 cells assessed as increase in procaspase 9 protein level at 60 uM at 24 hrs by Western blot analysis relative to control. Format: functional.
The subject of data set [20] is BEL-7404 tumor cell line. The data set can be described thus: Induction of apoptosis in human Bel7404 cells assessed as increase in procaspase 9 protein level at 60 uM at 36 hrs by Western blot analysis relative to control. It is filed as functional.
For data set [21], the system named is BEL-7404 tumor cell line. In words: Induction of apoptosis in human Bel7404 cells assessed as increase in procaspase 9 protein level at 60 uM at 48 hrs by Western blot analysis relative to control. It is filed as functional.
Data set [22] has as its system BEL-7404 tumor cell line. In words: Induction of apoptosis in human Bel7404 cells assessed as decrease in procaspase 3 protein level at 60 uM at 12 hrs by Western blot analysis relative to control. Format: functional.
In data set [23] the test system is BEL-7404 tumor cell line. In words: Induction of apoptosis in human Bel7404 cells assessed as decrease in procaspase 3 protein level at 60 uM at 24 hrs by Western blot analysis relative to control. Format: functional.
Data set [24] has as its system BEL-7404 tumor cell line. In words: Induction of apoptosis in human Bel7404 cells assessed as decrease in procaspase 3 protein level at 60 uM at 36 hrs by Western blot analysis relative to control. It is filed as functional.
Data set [25] deals with BEL-7404 tumor cell line. The data set can be described thus: Induction of apoptosis in human Bel7404 cells assessed as decrease in procaspase 3 protein level at 60 uM at 48 hrs by Western blot analysis relative to control. Format: functional.
Data set [26] is described as follows: Cell cycle arrest in human Bel7404 cells assessed as accumulation at G0/G1 phase at 20 uM after 24 hrs by PI-based flow cytometry ( Rvb = 56.50 % ). Format: functional. The following applies: BEL-7404. (In flow cytometry, cells or beads pass a laser one at a time.)
A short description of data set [27]: Cell cycle arrest in human Bel7404 cells assessed as accumulation at G0/G1 phase at 40 uM after 24 hrs by PI-based flow cytometry ( Rvb = 56.50 % ). The following applies: BEL-7404. Format: functional.
Data set [28] can be described thus: Cell cycle arrest in human Bel7404 cells assessed as accumulation at G0/G1 phase at 60 uM after 24 hrs by PI-based flow cytometry ( Rvb = 56.50 % ). The conditions noted are these: BEL-7404. Format: functional.
Data set [29] in a line: Cell cycle arrest in human Bel7404 cells assessed as accumulation at S phase at 20 uM after 24 hrs by PI-based flow cytometry ( Rvb = 43.38 % ). It is filed as functional. The following applies: BEL-7404.
A short description of data set [30]: Cell cycle arrest in human Bel7404 cells assessed as accumulation at S phase at 40 uM after 24 hrs by PI-based flow cytometry ( Rvb = 43.38 % ). Format: functional. The following applies: BEL-7404.
Data set [31] is described as follows: Cell cycle arrest in human Bel7404 cells assessed as accumulation at S phase at 60 uM after 24 hrs by PI-based flow cytometry ( Rvb = 43.38 % ). It is filed as functional. The conditions noted are these: BEL-7404.
The nature of data set [32]: Cell cycle arrest in human Bel7404 cells assessed as accumulation at G2/M phase at 20 uM after 24 hrs by PI-based flow cytometry ( Rvb = 0.11 % ). Format: functional. The following applies: BEL-7404.
A short description of data set [33]: Cell cycle arrest in human Bel7404 cells assessed as accumulation at G2/M phase at 40 uM after 24 hrs by PI-based flow cytometry ( Rvb = 0.11 % ). Format: functional. The conditions noted are these: BEL-7404.
The nature of data set [34]: Cell cycle arrest in human Bel7404 cells assessed as accumulation at G2/M phase at 60 uM after 24 hrs by PI-based flow cytometry ( Rvb = 0.11 % ). It is filed as functional. The following applies: BEL-7404.
Data set [35] in a line: Cell cycle arrest in human Bel7404 cells assessed as increase in G0/G1 phase after 24 hrs by PI-based flow cytometry. The following applies: BEL-7404. It is filed as functional.
Data set [36] can be described thus: Cell cycle arrest in human Bel7404 cells assessed as decrease in G2/M phase after 24 hrs by PI-based flow cytometry. Format: functional. The conditions noted are these: BEL-7404.
Data set [37] relates to BEL-7404 tumor cell line. The data set can be described thus: Induction of apoptosis in human Bel7404 cells assessed as increase in procaspase 9 protein level at 60 uM at 12 hrs by Western blot analysis relative to control. It is filed as functional.
A short description of data set [38]: Cell cycle arrest in human Bel7404 cells assessed as decrease in S phase after 24 hrs by PI-based flow cytometry. It is filed as functional. The conditions noted are these: BEL-7404.
Data set [39] deals with BEL-7404 tumor cell line. The data set can be described thus: Induction of apoptosis in human Bel7404 cells assessed as increase in Bax protein expression at 60 uM at 48 hrs by Western blot analysis relative to control. Format: functional.

The source made the active and inactive calls. No cut-off for these calls is given here.

As usually defined, the IC50 is the concentration that gives 50% inhibition. As for `CC1(C)CC[C@]2(C(=O)O)CC[C@]3(C)C(=CC[C@@H]4[C@@]5(C)CC[C@H](O)C(C)(C)[C@@H]5CC[C@]43C)[C@@H]2C1` [OLEANOLIC_ACID], the half-inhibitory concentration (IC50) in data set [1] was found to be 54.6 µM; with K562 it was 58.1 µM; in [2], 57.9 µM; in the data set on MDA-MB-231, 67.9 µM.
In the case of `CC1(C)CC[C@]2(C(=O)O)CC[C@]3(C)C(=CC[C@@H]4[C@@]5(C)Cc6cnoc6C(C)(C)[C@@H]5CC[C@]43C)[C@@H]2C1`, the IC50 in data set [1] is 42.1 µM; with K562, 11.4 µM; in data set [2] it was 36 µM; with MDA-MB-231 it was 53.7 µM.
For the molecule `CC(=O)n1nc2c(n1)C(C)(C)[C@@H]1CC[C@]3(C)[C@H](CC=C4[C@@H]5CC(C)(C)CC[C@]5(C(=O)O)CC[C@]43C)[C@@]1(C)C2`, the IC50 was 76.6 µM in data set [1], 67.6 µM in the data set on K562, 45.1 µM in data set [2] and 61.7 µM in the data set with MDA-MB-231.
As to `CC1(C)CC[C@]2(C(=O)O)CC[C@]3(C)C(=CC[C@@H]4[C@@]5(C)Cc6cnc(N)nc6C(C)(C)[C@@H]5CC[C@]43C)[C@@H]2C1`, the “fold change (FC)” value is given as 7.6 in the data set with BEL-7404 tumor cell line [3]; 1.5 with BEL-7404 tumor cell line [4]; 1.5 in the data set with BEL-7404 tumor cell line [5]; 1 in the data set with BEL-7404 tumor cell line [11]; 0.5 with BEL-7404 tumor cell line [12]; 0.4 in the data set with BEL-7404 tumor cell line [13]. The “fold change (FC)” value is 0.4 in the data set with BEL-7404 tumor cell line [14]; 1.3 with BEL-7404 tumor cell line [15]; 2.6 in the data set on BEL-7404 tumor cell line [16]; 2.7 with BEL-7404 tumor cell line [17]; 7 in the data set on BEL-7404 tumor cell line [18]; 0.6 in the data set with BEL-7404 tumor cell line [19]. In addition, the “fold change (FC)” value with BEL-7404 tumor cell line [20] worked out at 0.2; in the data set on BEL-7404 tumor cell line [21], 0.1; in the data set on BEL-7404 tumor cell line [22], 0.8; in the data set on BEL-7404 tumor cell line [23], 0.6; in the data set on BEL-7404 tumor cell line [24] it was 0.4; with BEL-7404 tumor cell line [25], 0.1. In addition, the “fold change (FC)” value is given as 0.7 with BEL-7404 tumor cell line [37] and 7.7 in the data set with BEL-7404 tumor cell line [39]. Also, the IC50 was found to be 42.6 µM in data set [1], 39.3 µM in the data set with K562, 35.1 µM in data set [2] and 44.8 µM in the data set with MDA-MB-231. Also, the Activity result was “Non-toxic” in data set [6]; 58.4% in [26]; 62.9% in data set [27]; 73% in data set [28]; 41.6% in [29]; 37.1% in [30]. In addition, the Activity in data set [31] is 27%; in [32] it was 0%; in [33] it was 0%; in data set [34], 0%; in data set [35], “Dose-dependent effect”; in data set [36], “Dose-dependent effect”. For the same molecule, in data set [38], the Activity result is “Dose-dependent effect”. The result in the data set on BEL-7404 tumor cell line [7], in the data set on BEL-7404 tumor cell line [8], in the data set with BEL-7404 tumor cell line [9] and in the data set with BEL-7404 tumor cell line [10] was Active.
As to `CC1(C)CC[C@]2(C(=O)O)CC[C@]3(C)C(=CC[C@@H]4[C@@]5(C)Cc6nonc6C(C)(C)[C@@H]5CC[C@]43C)[C@@H]2C1`, the IC50 in [1] turned out to be 46.1 µM; in the data set with K562 it was 49.7 µM; in data set [2], 30.9 µM; with MDA-MB-231, 53.6 µM.
